# Like-named read-outs stand apart in the source and are kept apart here.
# How the values were obtained:
# [1] = system: HEL92.1.7 cells; test: cellular viability by CellTiter Blue assay, single agents and matrix combination; type: cell-based; settings: Homo sapiens, HEL 92.1.7, 72 h, single agent, three days of treatment
# Procedure: HEL92.1.7 cells were plated in 96-well plates and then treated with Compound 2 or MK-1775 as single agents. After three days of treatment, cellular viability was assessed by CellTiter Blue assay (Promega). Data represent the mean±S.E. (n=5 for Compound 2, n=2 for MK-1775). […] HEL92.1.7 cells were plated in 96-well plates and then treated with combinations of Compound 2 and MK-1775 in matrix fashion at the indicated concentrations. Three days after treatment cellular viability was assessed by CellTiter Blue assay. […] Data represent the average of two independent experiments (triplicate plates were averaged for each individual experiment).
# [2] = cited from earlier work
compound,measurement,setting,value
"CC(C)C(=O)Nc1c[nH]c2ncc(Br)c(N3CCC[C@@H](N)C3)c12 [Compound 2, (R)—N-(4-(3-aminopiperidin-1-yl)-5-bromo-1H-pyrrolo [2,3-b]pyridin-3-yl)isobutyramide]",IC50,[1],30 nM
C=CCn1c(=O)c2cnc(Nc3ccc(N4CCN(C)CC4)cc3)nc2n1-c1cccc(C(C)(C)O)n1 [MK-1775],MTD,"[2]; multiple dose (5 BID doses) in combination with carboplatin (AUC 5), trial ongoing",225 mg
same,MTD,"[2]; multiple dose (5 BID doses) in combination with cisplatin (75 mg/m^2), trial ongoing",125 mg
same,MTD,"[2]; multiple dose in combination with gemcitabine (1000 mg/m^2), BID day 1",50 mg
same,MTD,"[2]; multiple dose in combination with gemcitabine (1000 mg/m^2), BID day 2",25 mg
same,MTD,"[2]; multiple dose in combination with gemcitabine (1000 mg/m^2), QD day 3",25 mg
same,MTD,"[2]; single dose in combination with carboplatin (AUC 5), patients with advanced solid tumors",325 mg
same,MTD,"[2]; single dose in combination with cisplatin (75 mg/m^2), patients with advanced solid tumors",200 mg
same,MTD,"[2]; single dose in combination with gemcitabine (1000 mg/m^2), patients with advanced solid tumors",200 mg
same,IC50,[1],103 nM

# Reference: patent US10434094B2, “Combination of checkpoint kinase 1 inhibitors and wee 1 kinase inhibitors” (Array BioPharma Inc., priority 2010, dated 2019)
